ChEMBL document CHEMBL1201862, “PubChem BioAssay data set” (2004)
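Values below derive from 48-hour exposures of cells grown in 96-well plates, with endpoints linearly interpolated between the two concentrations bracketing the appropriate inhibition level. The concentration for 50% growth inhibition is given as GI50.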 The source made the active and inactive calls. Rule as the data show it: active = GI50 up to about 1.1 µM and inactive = higher.

Experiments:
Assay in all cases: NCI tumour cell line growth inhibition, 48 h
MOLT-4 = tested on: MOLT-4
IGROV-1 = tested on: IGROV-1
OVCAR-8 = tested on: OVCAR-8
NCI/ADR-RES = tested on: NCI/ADR-RES
Hs-578T = tested on: Hs-578T
HOP-62 = tested on: HOP-62
SK-MEL-28 = tested on: SK-MEL-28
BT-549 = tested on: BT-549
SK-MEL-5 = tested on: SK-MEL-5
SR = tested on: SR
SK-OV-3 = tested on: SK-OV-3
SF-268 = tested on: SF-268
UACC-257 = tested on: UACC-257
786-0 = tested on: 786-0
ACHN = tested on: ACHN
SNB-19 = tested on: SNB-19
NCI-H226 = tested on: NCI-H226
HCT-116 = tested on: HCT-116
T47D = tested on: T47D

Measured: GI50

O=C(C(Cl)=C(N1CCCCC1)N1CCCCC1)C(Cl)Cl
inactive: MOLT-4 > 100 µM | IGROV-1 > 100 µM | OVCAR-8 > 100 µM | NCI/ADR-RES > 100 µM | Hs-578T > 100 µM | HOP-62 > 100 µM | SK-MEL-28 > 100 µM | BT-549 > 100 µM | SK-MEL-5 > 100 µM | SR > 100 µM | SK-OV-3 > 100 µM | SF-268 > 100 µM | UACC-257 > 100 µM | 786-0 > 100 µM | ACHN > 100 µM | SNB-19 > 100 µM | NCI-H226 > 100 µM | HCT-116 > 100 µM | T47D > 100 µM

Ic1cccc(/C=C/CN2CCN(CCOC(c3ccccc3)c3ccccc3)CC2)c1
inactive: MOLT-4 5.32 µM | IGROV-1 19.7 µM | OVCAR-8 16 µM | NCI/ADR-RES 16 µM | Hs-578T 28 µM | HOP-62 17 µM | SK-MEL-28 20.8 µM | BT-549 16.8 µM | SK-MEL-5 14.3 µM | SR 4.16 µM | SK-OV-3 21.6 µM | SF-268 27.2 µM | UACC-257 15.7 µM | 786-0 15.7 µM | ACHN 44.6 µM | SNB-19 16.3 µM | NCI-H226 17.1 µM | HCT-116 12.6 µM | T47D 10.6 µM

CC(C)NCC(O)c1ccc(O)c2ncccc12 (stereo unspecified)
inactive: MOLT-4 18.2 µM | IGROV-1 33.5 µM | OVCAR-8 33.3 µM | NCI/ADR-RES 27.7 µM | Hs-578T > 100 µM | HOP-62 35.5 µM | SK-MEL-28 > 100 µM | BT-549 > 100 µM | SK-MEL-5 66.4 µM | SR 25.4 µM | SK-OV-3 21.9 µM | SF-268 35.3 µM | UACC-257 50 µM | 786-0 45.5 µM | ACHN 42.3 µM | SNB-19 > 100 µM | NCI-H226 > 100 µM | HCT-116 26.4 µM | T47D 33.8 µM

NC(Cc1nnn[nH]1)C(=O)O (stereo unspecified)
inactive: MOLT-4 > 100 µM | IGROV-1 > 100 µM | OVCAR-8 > 100 µM | NCI/ADR-RES > 100 µM | Hs-578T > 100 µM | HOP-62 > 100 µM | SK-MEL-28 > 100 µM | BT-549 > 100 µM | SK-MEL-5 > 100 µM | SR > 100 µM | SK-OV-3 > 100 µM | SF-268 > 100 µM | UACC-257 > 100 µM | 786-0 > 100 µM | ACHN > 100 µM | SNB-19 > 100 µM | NCI-H226 > 100 µM | HCT-116 > 100 µM | T47D > 100 µM
